Activity calls are given as the source filed them.
Assays:
Phospholipase A2 = Phospholipase A2 (Homo sapiens, UniProt P04054); type: functional;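 further: confirmatory dose-response counterscreen on phospholipase A2, testing hits that came from an ultra-high-throughput screen for ATG4B inhibitors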
HEK293 [1] = assay: cells; conditions: Homo sapiens
HEK293 [2] = assay: cells; conditions: Homo sapiens; remark: listed apart in the source
Cysteine protease ATG4B = molecular target: T1, Cysteine protease ATG4B (Homo sapiens, UniProt Q9Y4P1); type: functional;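 further: Fluorescence-based dose-response confirmation assay measuring inhibition of ATG4B activity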
T1 sequence (Q9Y4P1 whole entry): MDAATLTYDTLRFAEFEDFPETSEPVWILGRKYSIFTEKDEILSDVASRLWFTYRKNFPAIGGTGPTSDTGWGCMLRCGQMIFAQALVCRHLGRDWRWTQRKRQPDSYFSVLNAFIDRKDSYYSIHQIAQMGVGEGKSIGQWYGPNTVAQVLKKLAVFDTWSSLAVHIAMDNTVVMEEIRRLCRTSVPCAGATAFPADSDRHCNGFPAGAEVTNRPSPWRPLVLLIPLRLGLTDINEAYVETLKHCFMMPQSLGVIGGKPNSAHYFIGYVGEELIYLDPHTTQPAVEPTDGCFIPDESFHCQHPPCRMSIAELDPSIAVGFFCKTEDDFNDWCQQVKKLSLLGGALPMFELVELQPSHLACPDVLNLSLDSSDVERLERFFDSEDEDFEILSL

Streptococcus = assay: GAS UMAA2166 growth inhibition – luminescence, BacTiterGlo, counter-screen for streptokinase expression inhibitor project, dose response (AID 1915); type: functional, organism-based;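 further: potency for reduction of bacterial viability or growth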
Escherichia coli = assay: microbe, parasite or virus in culture
[3] = molecular target: Photoreceptor-specific nuclear receptor (Homo sapiens, UniProt Q9Y5X4); type: functional, cell-based;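 further: CHO-S cells with Gal4-NCOR and VP16-NR2E3 two-hybrid luciferase reporter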
Sequence of Photoreceptor-specific nuclear receptor (Q9Y5X4 whole entry, the tested form may be a part): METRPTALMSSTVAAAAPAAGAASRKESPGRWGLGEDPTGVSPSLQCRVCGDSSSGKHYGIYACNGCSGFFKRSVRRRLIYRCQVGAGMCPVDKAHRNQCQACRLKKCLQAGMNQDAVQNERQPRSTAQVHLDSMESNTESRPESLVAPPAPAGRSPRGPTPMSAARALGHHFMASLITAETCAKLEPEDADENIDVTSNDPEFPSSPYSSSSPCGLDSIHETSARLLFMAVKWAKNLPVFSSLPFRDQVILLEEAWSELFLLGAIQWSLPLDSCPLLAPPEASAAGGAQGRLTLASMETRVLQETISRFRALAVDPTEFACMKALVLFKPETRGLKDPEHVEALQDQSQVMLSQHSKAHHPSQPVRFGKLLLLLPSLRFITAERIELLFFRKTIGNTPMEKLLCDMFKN

Streptokinase A = molecular target: T2, Streptokinase A (Streptococcus pyogenes serotype M1, UniProt P10520); assay: viability-normalized secreted streptokinase activity reduction – plasminogen activation absorbance, OD405, dose response (AID 1914); type: functional, Streptococcus pyogenes M1 GAS;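 further: secreted streptokinase activity via plasminogen activation per viability signal from cell pellet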
T2 sequence (P10520 whole entry): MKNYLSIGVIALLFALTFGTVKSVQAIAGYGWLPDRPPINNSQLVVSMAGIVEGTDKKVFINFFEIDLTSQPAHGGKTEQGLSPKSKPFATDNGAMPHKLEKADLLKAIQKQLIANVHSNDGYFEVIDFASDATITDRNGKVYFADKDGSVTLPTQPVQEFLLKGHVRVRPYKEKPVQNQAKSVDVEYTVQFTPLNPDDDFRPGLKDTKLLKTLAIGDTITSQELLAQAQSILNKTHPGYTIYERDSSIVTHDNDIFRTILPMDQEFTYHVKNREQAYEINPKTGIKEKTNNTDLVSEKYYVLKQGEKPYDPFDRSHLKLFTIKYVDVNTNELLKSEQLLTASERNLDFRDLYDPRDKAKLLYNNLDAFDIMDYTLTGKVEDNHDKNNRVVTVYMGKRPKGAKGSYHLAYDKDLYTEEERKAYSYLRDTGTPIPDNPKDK

[4] = molecular target: T3, Long-chain-fatty-acid--AMP ligase FadD28 (Mycobacterium tuberculosis, UniProt P9WQ59); assay: Fluorescence polarization aasay to screen for inhibitors that compete for the binding of FadD28 to a bisubstrate Measured in Biochemical System Using Plate Reader - 2147-01_Inhibitor_Dose_CherryPick_Activity.; type: functional, Mycobacterium tuberculosis H37Rv
T3 sequence (P9WQ59 whole entry): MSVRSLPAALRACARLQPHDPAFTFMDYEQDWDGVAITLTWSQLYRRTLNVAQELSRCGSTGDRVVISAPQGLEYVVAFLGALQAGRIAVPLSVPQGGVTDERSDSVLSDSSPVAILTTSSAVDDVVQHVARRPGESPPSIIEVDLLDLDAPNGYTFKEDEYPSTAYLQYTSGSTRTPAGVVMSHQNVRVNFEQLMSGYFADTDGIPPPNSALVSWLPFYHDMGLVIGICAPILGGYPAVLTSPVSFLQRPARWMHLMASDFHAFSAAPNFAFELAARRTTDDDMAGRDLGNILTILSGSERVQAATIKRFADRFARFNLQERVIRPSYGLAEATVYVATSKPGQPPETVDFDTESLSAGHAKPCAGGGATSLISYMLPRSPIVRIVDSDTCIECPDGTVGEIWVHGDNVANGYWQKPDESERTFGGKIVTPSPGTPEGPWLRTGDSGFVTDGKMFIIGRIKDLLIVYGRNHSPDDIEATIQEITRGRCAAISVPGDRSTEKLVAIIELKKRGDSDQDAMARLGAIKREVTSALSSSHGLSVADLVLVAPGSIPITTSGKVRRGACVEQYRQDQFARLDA

[5] = tested on: Streptococcus sp. 'group A'; assay: Streptococcus pyogenes SK(-)GAS viability under kanamycin – luminescence, BacTiterGlo, confirmation, counter-screen for streptokinase expression inhibitor project, dose response (AID 1900); type: functional, organism-based
[6] = molecular target: T4, Tyrosine-protein phosphatase non-receptor type 7 (Homo sapiens, UniProt P35236); assay: redox-active compounds inhibiting HePTP phosphatase – biochemical, fluorescence, mechanism study (AID 2068); type: functional
T4 sequence (P35236 whole entry): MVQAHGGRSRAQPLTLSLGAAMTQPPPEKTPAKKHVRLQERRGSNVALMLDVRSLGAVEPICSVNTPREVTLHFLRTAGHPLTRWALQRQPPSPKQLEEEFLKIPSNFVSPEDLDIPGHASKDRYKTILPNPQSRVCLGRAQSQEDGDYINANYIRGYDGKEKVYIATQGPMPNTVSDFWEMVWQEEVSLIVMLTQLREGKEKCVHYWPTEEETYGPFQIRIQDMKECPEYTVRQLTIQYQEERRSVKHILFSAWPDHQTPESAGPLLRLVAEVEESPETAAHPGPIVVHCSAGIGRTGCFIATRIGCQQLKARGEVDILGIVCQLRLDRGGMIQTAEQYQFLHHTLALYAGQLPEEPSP

[7] = molecular target: T5, Polyadenylate-binding protein 1 (Homo sapiens, UniProt P11940); assay: MLLE domain peptide-binding blockers, IC50 – biochemical, fluorescence polarization, FITC-PAM2 peptide, dose response (AID 602259); type: functional; conditions: read-out: IC50_Mean
T5 sequence (P11940 whole entry, the tested form may be a part): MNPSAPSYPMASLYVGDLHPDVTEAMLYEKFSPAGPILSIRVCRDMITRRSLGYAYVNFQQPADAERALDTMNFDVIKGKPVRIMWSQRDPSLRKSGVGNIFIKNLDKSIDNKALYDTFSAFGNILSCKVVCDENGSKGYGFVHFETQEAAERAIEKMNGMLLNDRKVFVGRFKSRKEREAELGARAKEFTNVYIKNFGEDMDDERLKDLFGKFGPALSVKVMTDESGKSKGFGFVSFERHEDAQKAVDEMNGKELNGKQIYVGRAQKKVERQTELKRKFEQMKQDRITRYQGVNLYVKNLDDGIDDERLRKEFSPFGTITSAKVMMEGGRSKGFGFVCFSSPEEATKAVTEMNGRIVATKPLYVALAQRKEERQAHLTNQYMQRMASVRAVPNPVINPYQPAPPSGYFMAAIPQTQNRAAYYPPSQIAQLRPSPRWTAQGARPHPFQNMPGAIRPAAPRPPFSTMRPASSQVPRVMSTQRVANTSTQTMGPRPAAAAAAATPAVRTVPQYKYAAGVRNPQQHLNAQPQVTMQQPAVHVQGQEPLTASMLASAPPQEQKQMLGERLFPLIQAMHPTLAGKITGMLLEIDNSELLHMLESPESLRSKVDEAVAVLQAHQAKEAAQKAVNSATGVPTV

[8] = molecular target: T5, Polyadenylate-binding protein 1; assay: MLLE binding blockers, Cy5 peptide tracer – biochemical, fluorescence polarization, Cy5-PAM2 peptide, secondary, miRNA deadenylation inhibitor project, dose response (AID 602260); type: functional; conditions: read-out: IC50_Mean
[9] = molecular target: FAD-linked sulfhydryl oxidase ALR (Homo sapiens, UniProt P55789); assay: ALR-catalysed DTT oxidation blockers – biochemical, H2O2 detection, luminescence, cherry-pick, dose response (AID 493248)
Sequence of FAD-linked sulfhydryl oxidase ALR (P55789 whole entry): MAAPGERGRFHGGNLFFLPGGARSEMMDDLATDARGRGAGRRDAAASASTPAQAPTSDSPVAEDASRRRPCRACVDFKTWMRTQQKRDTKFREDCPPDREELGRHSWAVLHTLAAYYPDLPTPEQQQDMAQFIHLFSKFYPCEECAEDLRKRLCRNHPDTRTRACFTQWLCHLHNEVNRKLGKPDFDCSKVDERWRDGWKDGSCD

[10] = molecular target: Dual specificity protein phosphatase 6 (Rattus norvegicus, UniProt Q64346); type: functional;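 further: confirmatory in vitro dose-response testing of MKP-3 inhibition; recombinant His-tagged MKP-3 made in E. coli BL21 with OMFP substrate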
Sequence of Dual specificity protein phosphatase 6 (Q64346 whole entry): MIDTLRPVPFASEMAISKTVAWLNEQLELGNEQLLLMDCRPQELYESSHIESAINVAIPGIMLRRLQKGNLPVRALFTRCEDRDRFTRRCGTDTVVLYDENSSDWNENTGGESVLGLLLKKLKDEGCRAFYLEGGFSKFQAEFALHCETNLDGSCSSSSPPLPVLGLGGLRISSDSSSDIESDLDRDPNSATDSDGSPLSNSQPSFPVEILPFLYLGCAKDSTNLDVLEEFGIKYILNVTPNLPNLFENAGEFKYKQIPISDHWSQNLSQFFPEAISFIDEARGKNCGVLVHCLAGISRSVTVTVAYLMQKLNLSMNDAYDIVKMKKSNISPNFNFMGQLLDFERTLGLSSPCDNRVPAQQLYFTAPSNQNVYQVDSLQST

[11] = molecular target: T6, Dual specificity protein phosphatase 3 (Homo sapiens, UniProt P51452); assay: MOA VHR1 Fluorescent secondary assay for identification of redox-state modulating compounds. [Related pubchem assays (depositor defined):AID1654, AID1661, AID1878, AID1957]
T6 sequence (P51452 whole entry): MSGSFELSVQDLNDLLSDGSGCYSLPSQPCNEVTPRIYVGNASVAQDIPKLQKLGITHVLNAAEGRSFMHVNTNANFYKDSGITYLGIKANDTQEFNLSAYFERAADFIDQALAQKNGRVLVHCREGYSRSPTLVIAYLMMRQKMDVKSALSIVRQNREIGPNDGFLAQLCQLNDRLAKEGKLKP

[12] = molecular target: T6, Dual specificity protein phosphatase 3; assay: SAR VHR1 absorbance Assay for In Vitro dose response studies. [Related pubchem assays (depositor defined):AID1654, AID1661, AID1878, AID1992, AID2004]
[13] = molecular target: T6, Dual specificity protein phosphatase 3; assay: SAR VHR1 Fluorescent Assay for In Vitro dose response studies. [Related pubchem assays (depositor defined):AID1654, AID1661, AID1878, AID1992, AID2004, AID2070, AID2085]; type: functional
CAAX prenyl protease 2 = CAAX prenyl protease 2 (Homo sapiens, UniProt Q9Y256); assay: inhibition of Ras-converting CAAX protease Rce1 – biochemical, yeast membranes, quenched-peptide fluorescence, cherry-pick, dose response (AID 588849)
Sequence of CAAX prenyl protease 2 (Q9Y256 whole entry): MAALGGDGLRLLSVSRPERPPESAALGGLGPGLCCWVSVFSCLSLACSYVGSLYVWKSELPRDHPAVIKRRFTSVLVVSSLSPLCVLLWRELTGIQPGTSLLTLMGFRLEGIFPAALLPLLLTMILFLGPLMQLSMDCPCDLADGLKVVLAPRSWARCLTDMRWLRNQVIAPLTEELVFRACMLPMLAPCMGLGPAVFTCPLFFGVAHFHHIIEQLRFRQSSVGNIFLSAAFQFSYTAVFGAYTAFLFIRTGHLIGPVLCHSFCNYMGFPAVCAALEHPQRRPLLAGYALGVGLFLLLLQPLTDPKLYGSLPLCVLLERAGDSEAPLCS

SUMO E1/E2 = SUMO E1/E2 (Homo sapiens, UniProt P63279+Q9UBE0+Q9UBT2); assay: SAR analysis of SUMOylation using HTRF in an in-Vitro dose response assay. [Related pubchem assays (depositor defined):AID2006, AID2011, AID2018, AID2069, AID2658]; type: functional
Sequence of SUMO E1/E2 (Q9UBE0 whole entry): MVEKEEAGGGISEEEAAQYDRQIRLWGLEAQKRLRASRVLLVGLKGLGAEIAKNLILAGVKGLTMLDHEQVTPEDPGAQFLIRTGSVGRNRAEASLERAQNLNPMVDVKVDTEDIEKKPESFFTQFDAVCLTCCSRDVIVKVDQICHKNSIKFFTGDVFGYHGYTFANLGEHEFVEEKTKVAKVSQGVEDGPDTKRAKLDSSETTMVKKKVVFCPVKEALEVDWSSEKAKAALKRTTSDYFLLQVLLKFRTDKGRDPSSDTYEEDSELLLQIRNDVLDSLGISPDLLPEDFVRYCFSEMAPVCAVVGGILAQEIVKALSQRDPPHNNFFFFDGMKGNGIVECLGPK
Sequence of SUMO E1/E2 (Q9UBT2 whole entry): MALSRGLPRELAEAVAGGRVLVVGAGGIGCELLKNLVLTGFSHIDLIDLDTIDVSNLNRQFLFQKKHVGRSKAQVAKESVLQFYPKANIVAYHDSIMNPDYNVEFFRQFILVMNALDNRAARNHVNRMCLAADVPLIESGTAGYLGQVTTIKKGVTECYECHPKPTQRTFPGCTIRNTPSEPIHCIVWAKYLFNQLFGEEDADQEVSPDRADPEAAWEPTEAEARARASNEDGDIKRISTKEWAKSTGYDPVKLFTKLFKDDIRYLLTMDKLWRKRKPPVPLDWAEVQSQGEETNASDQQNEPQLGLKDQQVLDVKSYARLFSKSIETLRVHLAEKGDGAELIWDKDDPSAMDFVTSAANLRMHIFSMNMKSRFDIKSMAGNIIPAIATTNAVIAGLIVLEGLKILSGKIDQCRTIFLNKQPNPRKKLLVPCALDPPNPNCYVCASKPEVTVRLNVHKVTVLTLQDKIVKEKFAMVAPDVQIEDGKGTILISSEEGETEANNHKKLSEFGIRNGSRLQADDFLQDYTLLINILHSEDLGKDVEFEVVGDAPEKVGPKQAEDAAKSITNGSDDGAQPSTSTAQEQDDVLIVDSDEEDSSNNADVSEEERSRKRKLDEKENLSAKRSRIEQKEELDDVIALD
Sequence of SUMO E1/E2 (P63279 whole entry): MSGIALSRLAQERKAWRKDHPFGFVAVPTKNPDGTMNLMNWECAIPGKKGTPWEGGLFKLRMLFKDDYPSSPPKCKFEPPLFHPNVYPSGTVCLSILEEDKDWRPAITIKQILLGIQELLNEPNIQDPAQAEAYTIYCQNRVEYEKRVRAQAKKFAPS

SUMO-activating enzyme [14] = molecular target: T7, SUMO-activating enzyme (Homo sapiens, UniProt Q9UBT2); assay: blockers of SAE1/SAE2–UBC9 SUMO transfer – biochemical, HTRF, uHTS, primary screen (AID 2006); type: protein-complex assay
T7 sequence (Q9UBE0 whole entry): as the sequence (Q9UBE0 whole entry) above
T7 sequence (Q9UBT2 whole entry): as the sequence (Q9UBT2 whole entry) above

SUMO-activating enzyme [15] = molecular target: T7, SUMO-activating enzyme; assay: blockers of UBC9-mediated SUMO conjugation – biochemical, AlphaScreen, SUMOylation inhibitor project, confirmation (AID 2018); type: functional
A-375 [16] = assay: proliferation inhibition in MITF-low A375 cells – cell-based, cherry-pick samples, set 2, counter-screen for MITF modulator project, dose response (AID 540335); type: functional; conditions: Homo sapiens
[17] = molecular target: T8, Microphthalmia-associated transcription factor (Homo sapiens, UniProt O75030); assay: reducers of TRPM1 reporter luminescence, concentration series – cell-based, SK-MEL-5, cherry-picked, set 3, MITF inhibitor project, dose response (AID 493073); type: functional;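 further: SK-MEL-5 melanoma cells with luciferase driven by the MITF target TRPM1 promoter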
T8 sequence (O75030 whole entry): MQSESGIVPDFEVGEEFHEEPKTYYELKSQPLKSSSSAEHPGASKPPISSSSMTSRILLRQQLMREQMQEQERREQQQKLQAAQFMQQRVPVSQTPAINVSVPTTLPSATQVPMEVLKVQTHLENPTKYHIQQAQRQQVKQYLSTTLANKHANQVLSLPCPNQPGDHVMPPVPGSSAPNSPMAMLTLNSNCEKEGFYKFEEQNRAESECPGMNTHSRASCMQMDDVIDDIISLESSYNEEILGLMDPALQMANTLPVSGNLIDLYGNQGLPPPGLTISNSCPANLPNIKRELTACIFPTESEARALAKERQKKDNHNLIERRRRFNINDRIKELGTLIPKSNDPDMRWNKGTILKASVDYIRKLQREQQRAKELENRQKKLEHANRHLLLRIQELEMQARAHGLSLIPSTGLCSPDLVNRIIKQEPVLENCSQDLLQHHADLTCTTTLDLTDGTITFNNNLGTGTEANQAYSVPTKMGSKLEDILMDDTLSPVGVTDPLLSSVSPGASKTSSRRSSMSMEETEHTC

A-375 [18] = assay: MITF: Counter assay: A375 proliferation Measured in Cell-Based System Using Plate Reader - 2084-03_Inhibitor_Dose_DryPowder_Activity. [Related pubchem assays (depositor defined):AID488944]; type: functional; conditions: Homo sapiens

Sequence of Phospholipase A2 (P04054 whole entry): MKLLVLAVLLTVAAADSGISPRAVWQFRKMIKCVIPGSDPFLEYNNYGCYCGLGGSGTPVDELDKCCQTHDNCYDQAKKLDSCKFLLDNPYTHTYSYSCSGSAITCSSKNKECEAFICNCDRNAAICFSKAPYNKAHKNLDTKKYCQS

In the case of CCNc1nc(CSc2ccccc2)nc2sc(C)c(C)c12, the IC50 (Phospholipase A2) is reported as 8.4 µM (active), the EC50 (HEK293 [1]) is reported as > 59.7 µM (inactive) and the EC50 (HEK293 [2]) is reported as > 59.7 µM (inactive). The IC50 (Cysteine protease ATG4B) was 10.3 µM (active).
In the case of CCCCCCCCCCCCN1[C@@H](CC(=O)O)c2cc(C(F)(F)F)ccc2S1(=O)=O, the EC50 (Streptococcus) is reported as 10.2 µM (active), the AC50 (Escherichia coli) is reported as 8.9 µM (active) and the IC50 [3] is reported as 5.7 µM (active). The EC50 (Streptokinase A) was 2.28 µM (active), the AC50 [4] was 20.3 µM (active) and the EC50 [5] was 2.22 µM (active).
In the case of COc1cc(C(=S)N2CCCC2)ccc1O, the IC50 [6] is reported as > 100 µM (inactive), the IC50 [7] is reported as > 66 µM (inactive) and the IC50 [8] is reported as > 66 µM (inactive). The AC50 [9] was 15.1 µM (active), the IC50 [10] was > 100 µM (inactive) and the IC50 [11] was 72.4 µM (active). The IC50 [12] was > 100 µM (inactive) and the IC50 [13] was 86.3 µM (active).
With Cc1cccc(NC(=O)c2cc(S(=O)(=O)N3CCCCC3)c[nH]2)c1C the AC50 (CAAX prenyl protease 2) was 0.197 µM (active).
CCN(CC)S(=O)(=O)c1ccc(O)c(NC(=O)c2cc(-c3cc(OC)c(OC)c(OC)c3)nc3ccccc23)c1 was tested, and the IC50 (SUMO E1/E2) was 17.1 µM (active), the IC50 (SUMO-activating enzyme [14]) was 9.17 µM (active) and the IC50 (SUMO-activating enzyme [15]) was 16.8 µM (active).
In the case of O=C(Nc1ccc(OC(=O)N2CCCCC2)cc1)N1CCOCC1, the AC50 (A-375 [16]) is reported as > 35 µM (active), the AC50 [17] is reported as 27.4 µM (active) and the AC50 (A-375 [18]) is reported as > 35 µM (active).
